According to US10646521B2, “Microbiota composition, as a marker of responsiveness to chemotherapy, and use of microbial modulators (pre-, pro- or synbiotics) for improving the efficacy of a cancer treatment” (INSTITUT GUSTAVE ROUSSY, priority 2013, dated 2020):
Several values for one entry are separate records, joined by “and”; a condition that tells them apart may be missing. Identical values can stand only once.

Tests used:
[1] = tested on: small intestine epithelium; conditions: mouse, in vivo
Procedure: The whole small intestine (duodenum, jejunum and ileum) was removed, cleaned from fecal content and fixed in 4% of PFA for 1 h. Re-hydration of the tissue was performed in 15% sucrose for 1 h and in 30% sucrose overnight. Depending on the experiment, the small intestine was entirely rolled, or cut into small pieces, then embedded in optimum cutting temperature (OCT) compound (Sakura), snap frozen and longitudinal or transversal […] were prepared.
For histological analyses, the longitudinal sections were counterstained with hematoxilin and eosin. For the histological quantitative analyses, inflammatory foci, altered villi and the thickness of lamina propria were scored for each section, while the number of goblet cells was counted for each villus. […] Then, a rabbit polyclonal antibody against the lysozyme protein (1:500 for 1 h, Thermo Scientific) and ALEXA FLUOR 488 Fragment of goat anti-rabbit IgG (1:300 for 1 h, Molecular Probes) were used. All steps were performed at room temperature. Lysozyme-positive areas were quantified on mosaic images using the Histolab software (Microvision Instruments). The quantification of Paneth cells was performed measuring the average area of the Lysozyme-positive clusters (group of Paneth cells) as well as the emission/μm^2 of those clusters (not shown).

commensal bacteria = format: in vivo, mice
Procedure: Mesenteric lymph nodes and spleens were aseptically removed, smashed in PBS and plated onto COS agar plates (BioMérieux), for aerobic and anaerobic growth. After 48 h of culture, single colonies were isolated and stocked in glycerol at −80° C.
Serial dilutions of feces from naïve mice or tumor bearers treated with NaCl or CTX, vancomycin or broad spectrum antibiotics (ATB) (ampicillin+streptomycin+colistin), were plated onto COS agar plates and after 48 h, single colonies were isolated and Gram staining was performed. The identification of specific bacteria was accomplished through the combination of morphological tests and the analysis through VITEK® automated system (BioMérieux, France) and verified in mass spectrometry (MALDI-TOF, see below) performed at Pasteur Institute, Paris, France.

splenocytes = experiment: TCR cross-linking of splenocytes, IL-17 and IFNγ ELISA; format: in vivo, mice
MCA205 sarcomas = format: in vivo, C57BL/6 mice; conditions: mouse, in vivo
memory CD4+ T cells = conditions: 11 patients, after metronomic CTX
Procedure: Ex vivo restimulation assays using patients' autologous monocytes loaded with defined bacteria for 3 hours, neutralized with antibiotics, then cultured in GM-CSF+IL-4 (to differentiate into DC) and incubated for 3 days with CD4^+CD45RO^+ T cells (at a 1:2 ratio) purified from autologous blood at various time points (Day 0: before CTX, Day 12-46: after CTX, NSCLC: non small cell lung cancer). A. Cytokine release (IFNγ, TNF, IL-10) was monitored using ELISA. […] C. […] B-D show the cytokine levels in the 40 h supernatants of 250.000 memory CD4^+ T cells for each individual patient pre- and post-CTX administration.
The responses that were monitored included those against enterococci (E. hirae and E. faecalis, both immunogenic in mice receiving CTX), lactobacilli (L. johnsonii and the less relevant L. plantarum), as well as against E. coli.

[2] = tested on: Lysozyme M and RegIIIγ transcription; conditions: duodenum, 18 hours post-CTX
Procedure: Lamina propria cells were isolated from duodenum, ileum and colon 18 h post CTX, and total RNA extraction and genomic DNA removal were performed with the RNeasy Mini Kit (Qiagen, Hilden, Germany), following the manufacturer's instructions. Total RNA extraction and genomic DNA removal of ilea or duodena were performed with the RNeasy Mini Kit (Qiagen, Hilden, Germany), following the manufacturer's instructions. Total RNA was then reverse transcribed into cDNA with the SuperScript III Reverse Transcriptase and the RNaseOUT™ Recombinant Ribonuclease Inhibitor (Life Technologies, Saint Aubin, France), in the presence of random primers (Promega, Charbonnieres, France) and the Deoxynucleoside Triphosphate Set, PCR grade (Roche Diagnostics, Meylan, France). Expression of RegIIIγ (Mm00441127_m1) and LysM (Mm01612741_m1)-related genes was analyzed with TaqMan® Gene Expression Assays using the Universal Master Mix II on a StepOnePlus™ Real-Time PCR System (Life Technologies, France). Quantitative RT-PCR data were invariably normalized to the expression levels of the housekeeping gene peptidylprolyl isomerase A (Ppia) by means of the 2^−ΔCt method.

[3] = 18 h post CTX
Procedure: Gut barrier integrity was assessed by permeability to FITC-dextran (4 kDa, Sigma Aldrich). Fourteen hours after i.p. injection with NaCl or CTX at 100 or 200 mg/kg, mice were fasted for 4 hours and then orally fed with FITC-dextran at 0.6 mg/g body weight (80 mg/ml in NaCl, 18 h after NaCl/CTX treatment). After 3 to 4 h, the mice were euthanized and exsanguinated by cardiac puncture. Plasma FITC levels were subsequently determined using a fluorescence spectrophotometer (λex/λem=485/535 nm).

[4] = tested on: small intestine mucosal microbiota; conditions: mouse, in vivo
[5] = tested on: bacterial groups associated with small intestine mucosa
[6] = tested on: lamina propria cells of the small intestine; conditions: 7 days post-CTX
splenic CD4+ T cells = conditions: mouse, in vivo
[7] = tested on: CBir1 TCR Tg CD4+ T cells; conditions: mouse, in vivo
Procedure: CD4^+ T cells were isolated from B6.CBir1 TCR Tg mice using anti-mouse CD4 magnetic beads. Briefly, splenic cells were washed twice and incubated with anti-CD4 magnetic beads at 4° C. for 30 min and then separated by magnetic field. When checked by flow cytometry, over 95% of the cells were CD4^+ T cells. One million CBir1 Tg T cells (CD45.1^+) were adoptively transferred i.v. into CTX or NaCl treated-naïve congenic (CD45.2^+) mice two days after chemotherapy and spleens were harvested at day 5-7 post-transfer for flow cytometry analyses and ex vivo splenocyte restimulations. Flow cytometry analyses gated on CD45.1^+ cells to appreciate percentages of intracellular IL-17^+ or IFNg^+ cells after PMA/ionomycin 5 h restimulation in the presence of monensin.

gut microbiota [8] = conditions: NOD1-/-xNOD2-/- naive mice, CTX compared with PBS, seven days
splenic pTh17 cells = experiment: Flow cytometry of splenic pTh17 / TH1 / Tc1 cells
Procedure: For cross-linking experiment, 2×10^5 total splenocytes per well (after red cell lysis) were incubated in MaxiSorp plates (Nunc) precoated with anti-CD3ε mAb (145-2C11) (0.5 μg per well; eBioscience) and/or anti-CD28 mAb (37.51) (2 μg/ml; BD). The supernatants were assayed at 48 h by ELISA for mouse IL-17A (eBioscience) and IFNγ (BD). […] For intracellular, cells were incubated for 4 h at 37° C. with 50 ng/ml of PMA, 1 μg/ml of ionomycin and BD Golgi STOP™. After membrane staining, cells were stained with anti-IL-17A, IFNγ, T-bet and RORγt using eBioscience FoxP3/Transcription factor staining buffer set.

tumor = experiment: Effects of ATB regimen on the efficacy of CTX (tumor outgrowth); format: in vivo, mice; conditions: ATB regimen 15 days prior to tumor inoculation
Procedure: Distinct ATB regimen (Zhang Y et al. Toxicology and Applied Pharmacology 277 (2014) 138-145) were administered for 15 days prior to tumor inoculation and CTX therapy every other 13 days. Tumor outgrowth was monitored with a caliper twice a week. […] Each experiment contains several groups of 5 mice. *Anova test: p<0.05.

gut microbiota [9] = conditions: Zhang Y et al., 2014; cited from earlier work

SMILES: O=P1(N(CCCl)CCCl)NCCCO1 (centres unmarked) [CTX, cyclophosphamide]
- inflammatory status of the gut epithelial barrier (histology) [1]: shortening of small intestinal villi, discontinuities of the epithelial barrier, interstitial edema and focal accumulation of mononuclear cells in the lamina propria
- Lactobacillus johnsonii cultured from lymphoid organs (commensal bacteria; 48 h post therapy): > 40 % cases
- mice with translocation of commensal bacteria into mesenteric lymph nodes and spleens (commensal bacteria; 48 h post-CTX): > 50 % mice
- bacterial translocation (colonies from spleens, anaerobic conditions) in NOD1xNOD2-/- (commensal bacteria; 48 hrs post-CTX): enhanced
- polarization of splenic CD4+ T cells towards Th1 and Th17 pattern (splenocytes; day 7 after treatment): induced the polarization
- increase of ex vivo IL-17 release by TCR-stimulated splenocytes (splenocytes; germ-free (GF) mice): failed to do so
- ex vivo IL-17 release by TCR-stimulated splenocytes (splenocytes; specific pathogen-free (SPF) mice): increased
- antitumor effects against MCA205 sarcomas, GF versus SPF mice (MCA205 sarcomas): reduced in GF compared with SPF mice
- immune-dependent anti-sarcoma effects in NOD1-/-xNOD2-/- mice (MCA205 sarcomas): significantly enhanced
- immune-dependent anti-sarcoma effects in single knock out mice (NOD1 or NOD2 or RIP2 or CARD15) compared with WT (MCA205 sarcomas): not ameliorated
- patients developing memory Th1 responses against E. coli (memory CD4+ T cells): 18%
- patients developing memory Th1 responses against L. johnsonii (memory CD4+ T cells): 18%
- patients developing memory Th1 responses against enterococci (memory CD4+ T cells): 54%
- patients mounting a cellular immune response against L. plantarum (memory CD4+ T cells): 9%
- expression of the antibacterial enzyme lysozyme [2]: upregulated
- intestinal permeability (orally administered FITC-dextran detectable in blood) [3]: increase
- bacterial species/groups from the Firmicutes phylum in mucosa [4]: reduction
- dysbiosis at early time points [4]: failed to cause a major dysbiosis
- microbial composition of small intestine and caecum [4]: significantly altered the microbial composition of the small intestine (but not of the caecum)
- proportion of Spirochaetes phylum [4]: reduction
- relative abundance of the Treponema genus [4]: 0%
- relative abundance: Butyrate-producing bacterium M62/1 (AY305309) [4]: 0.07% and 0.06%
- relative abundance: Butyrate-producing bacterium SM4/1 (AY305314) [4]: 0.21% and 0.20%
- relative abundance: Clostridium sp ASF502 (AF157053) [4]: 0.01% and 0.00%
- relative abundance: Clostridium sp. A9 (DQ789119) [4]: 0.23% and 0.27%
- relative abundance: Clostridium sp. Clone-33 (AB622843) [4]: 0.02% and 0.00%
- relative abundance: Clostridium sp. Clone-40 (AB622844) [4]: 0.05% and 0.02%
- relative abundance: Clostridium sp. Clone-49 (AB622849) [4]: 0.07% and 0.09%
- relative abundance: Clostridium sp. Culture-41 (AB622820) [4]: 0.10% and 0.08%
- relative abundance: Clostridium sp. Culture-54 (AB622823) [4]: 0.03% and 0.04%
- relative abundance: Coprococcus catus; L8 (AB361624) [4]: 0.03%
- relative abundance: Lachnospiraceae bacterium 14-2 (DQ789124) [4]: 0.05% and 0.02%
- relative abundance: Lactobacillus reuteri; LU3 (AY735406) [4]: 0.24% and 0.14%
- relative abundance: Roseburia faecis (T); M7211 (AY305310) [4]: 0.35% and 0.41%
- relative abundance: Roseburia intestinalis; XB6B4 (AM055815) [4]: 0.02% and 0.00%
- relative abundance: Rumen bacterium NK4A66 (GU124467) [4]: 0.07% and 0.10%
- relative abundance: Tannerella forsythia; OB071 (JN713185) [4]: 0.02%
- relative amounts of SFB and TM7 or Clostridium group XIV ([5]; day 7 post-CTX (not shown)): No CTX-specific modulations
- abundance of lactobacilli and enterococci ([5]; small intestine mucosa, 7 days post-CTX): reduction
- bacterial counts of the Clostridium leptum ([5]; tumor bearers, 7 days post-CTX): not affected
- total bacterial load of the small intestine ([5]; tumor bearers, 7 days post-CTX): not affected
- frequencies of CD103+CD11b+ dendritic cells in lamina propria of the small intestine [6]: significantly decreased
- frequencies of TCRαβ+CD3+ T cells expressing RORγt in lamina propria of the small intestine [6]: significantly decreased
- mice with Th1 memory responses against L. johnsonii (splenic CD4+ T cells): 50 % of mice
- immune responses against commensal bacteria (CBir1 Tg T cells) [7]: induced TCR-restricted, antigen specific immune responses against commensal bacteria
- Clostridiaceae in the small intestines (gut microbiota [8]): overrepresentation
- Erysipelotrichaceae in SI (gut microbiota [8]): relative loss
- Lachnospiraceae in feces (gut microbiota [8]): relative loss
- Porphyromonadaceae (mainly Barnesiella) in the stool (gut microbiota [8]): overrepresentation
- frequency of pathogenic Th17 (pTh17) cells within the spleen (splenic pTh17 cells; 7 days after treatment): increased
- priming of splenic pTH17 cells in NOD2-/- mice (splenic pTh17 cells; following CTX administration): augmented

SMILES: O=C(O)c1cn(C2CC2)c2cc(N3CCNCC3)c(F)cc2c1=O [cifloxacin]
- effect on the CTX-induced antitumor effects (tumor): not efficient
- Bacteroidetes in gut microbiota (gut microbiota [9]): marked suppression
